Data published in patent publication US20040235813A1, “Compounds that inhibit hsp90 and stimulate hsp70 and hsp40, useful in the prevention or treatment of diseases associated with protein aggregation and amyloid formation” (priority 2001, published 2004).

Key:
EGFP-HD72Q = experiment: Immunoblot of EGFP-HD72Q expression in GA treated COS-1 cells; type: cell-based; details: GA 18-360 nM, 40 hours
Experimental: (§1) (A) Expression of EGFP-HD72Q, Hsp40, Hsp70, and Hsp90 in COS-1 cells. […] Equal amounts (10 μg) of protein were loaded. […] Aggregates were detected using the filter retardation assay. Filters were probed with the HD1 antibody and signal intensities quantified using a Fuji-imager (LAS 2000). […] Values shown are the mean of three independent experiments (±S.E).
(§2) A further linker was introduced in order to generate the appropriate reading frame, resulting in pTL1-HA3. Hsp70-pTLHA3 was generated by PCR amplification of the human Hsp70A gene and cloning into pTL1-HA3. Hdj-1-pTL10Flag was generated by ligating the human HDJ-1 gene, derived from pQE9-His-Hsp40 (33), into pTL10SFlag (a kind gift of D. Devys and J.-L. Mandel). pEGFP-HD72Q was generated by PCR amplification of the exon 1 of human HD from patient DNA and cloning into pEGFP-C1 (Clontech). All constructs were verified by sequencing.
Control cells were treated with DMSO. […]
SDS-PAGE and Western blot analysis was performed according to standard procedures. […] Captured aggregates were detected by incubation with HD1 IgG (diluted 1:5000) followed by incubation with alkaline phosphatase conjugated anti-rabbit IgG and the fluorescent substrate AttoPhos. Quantitation of the captured aggregates was performed using a Fuji-imager (LAS 2000) and AIDA 1.0 image analysis software.

Hsp70 = experiment: Immunoblot of Hsp70 expression in GA treated COS-1 cells expressing EGFP-HD72Q; type: cell-based; details: GA 360 nM, 40 hours
Experimental: (§3) Equal amounts (10 μg) of protein were loaded. […] Aggregates were detected using the filter retardation assay.
(§4) Control cells were treated with DMSO.
(§5) Protein concentration was determined by the BioRad assay.

Hsp40 = experiment: Immunoblot of Hsp40 expression in GA treated COS-1 cells expressing EGFP-HD72Q; type: cell-based; details: GA 360 nM, 40 hours
Experimental: as §3, §4, §5

[1] = tested on: SDS-insoluble EGFP-HD72Q protein aggregates; experiment: Filter retardation assay for SDS-insoluble EGFP-HD72Q protein aggregates in COS-1 cells; type: cell-based, monkey; details: filtration assay
Experimental: as §1, §2
Control cells were treated with DMSO. As alternative transfection method, the Lipofectamine Plus Reagent (GibcoBRL Life Technologies) was used according to the manufacturer's instruction.
SDS-PAGE and Western blot analysis was performed according to standard procedures. For the filter retardation assay (27,30) protein samples (1-20 μg) were heated at 98° C. for 3 min in 2% SDS and 50 mM DTT and filtered through a 0.2 μm cellulose acetate membrane (Schleicher & Schuell) using a BRL dot-blot filtration unit. Captured aggregates were detected by incubation with HD1 IgG (diluted 1:5000) followed by incubation with alkaline phosphatase conjugated anti-rabbit IgG and the fluorescent substrate AttoPhos. Quantitation of the captured aggregates was performed using a Fuji-imager (LAS 2000) and AIDA 1.0 image analysis software.
Using this assay SDS-resistant huntingtin protein aggregates can be immunologically detected and quantified.

## COC1=C2C[C@@H](C)C[C@H](OC)[C@H](O)[C@@H](C)/C=C(\C)[C@H](OC(N)=O)[C@@H](OC)/C=C\C=C(/C)C(=O)NC(=CC1=O)C2=O [GA, Geldanamycin]
EGFP-HD72Q
  effect on EGFP-HD72Q expression: no effect
Hsp70
  up-regulation of Hsp70 compared to the untreated controls: 3-4 fold
Hsp40
  up-regulation of Hsp40 compared to the untreated controls: 3-4 fold
[1]; GA 18 nM
  reduction of the amount of insoluble protein aggregates: approximately 30%
[1]; GA 90 nM
  reduction of the amount of insoluble protein aggregates: ~60%
[1]; GA 180 nM
  reduction of the amount of insoluble protein aggregates: ~70%
[1]; GA 360 nM
  reduction of the amount of insoluble protein aggregates: ~80%
